Ten molecules from patent US11414689B2, “Hydrolysis of steviol glycosides by beta-glucosidase” (Conagen Inc., priority 2017, dated 2022) can be followed below.

Assay [1] deals with Beta-glucosidase (B-glu1, SEQ: 1). Kind of assay: de-glycosylation (hydrolysis) of steviol glycosides by purified recombinant B-glu1, HPLC analysis. The class given is biochemical, Pichia pastoris. The note with it: for extent of conversion by recombinant B-glu1 at 24 hrs: 1 g/L substrate; for Products of hydrolysis of steviol glycoside substrate by B-glu1: recombinant B-glu1 10 μg in 300 μl, 1 mg/ml steviol glycoside, 50 mM potassium phosphate pH 7.2, 30-37° C. The text has this: According to the current disclosure Pichia pastoris genome analysis was completed and several beta-glycosidase candidate genes were identified. Full length DNA fragments of all candidate beta-glucosidase genes were commercially synthesized. Almost all codons of the cDNA were changed to those preferred for E. coli (Genscript, NJ). The synthesized DNA was cloned into a bacterial expression vector pETite N-His SUMO Kan Vector (Lucigen). These same experiments could be performed in Yarrowia lipolytica with sequences optimized for such use.
Each expression construct was transformed into E. coli BL21 (DE3), which was subsequently grown in LB media containing 50 μg/mL kanamycin at 37° C. until reaching an OD600 of 0.8-1.0. Protein expression was induced by addition of 1 mM isopropyl β-D-1-thiogalactopyranoside (IPTG) and the culture was further grown at 16° C. for 22 hr. Cells were harvested by centrifugation (3,000×g; 10 min; 4° C.). The cell pellets were collected and were either used immediately or stored at −80° C.
The cell pellets typically were re-suspended in lysis buffer (50 mM potassium phosphate buffer, pH 7.2, 25 ug/ml lysozyme, 5 ug/ml DNase I, 20 mM imidazole, 500 mM NaCl, 10% glycerol, and 0.4% Triton X-100). The cells were disrupted by sonication under 4° C., and the cell debris was clarified by centrifugation (18,000×g; 30 min). Supernatant was loaded to an equilibrated (equilibration buffer: 50 mM potassium phosphate buffer, pH 7.2, 20 mM imidazole, 500 mM NaCl, 10% glycerol) Ni-NTA (Qiagen) affinity column. After loading of protein sample, the column was washed with equilibration buffer to remove unbound contaminant proteins. The His-tagged beta-glucosidase recombinant polypeptides were eluted by equilibration buffer containing 250 mM imidazole.
The purified candidate beta-glucosidase recombinant polypeptides were assayed for de-glycosylation activity by using various steviol glycosides as substrate. Typically, the recombinant polypeptide (10 μg) was tested in a 300 μl in vitro reaction system. The reaction system contains 50 mM potassium phosphate buffer, pH 7.2, 1 mg/ml steviol glycoside. The reaction was performed at 30-37° C. and 50 ul reaction was terminated by adding 200 μL 1-butanol at various time points. The samples were extracted three times with 200 μL 1-butanol. The pooled fraction was dried and dissolved in 100 μL 80% methanol for high-performance liquid chromatography (HPLC) analysis.
HPLC analysis was then performed using a Dionex UPLC ultimate 3000 system (Sunnyvale, Calif.), including a quaternary pump, a temperature controlled column compartment, an auto sampler and a UV absorbance detector. A Synergi Hydro-RP column (Phenomenex) with guard column was used for the characterization of steviol glycosides in the pooled samples. Acetonitrile in water was used mobile phase in the HPLC analysis. The detection wavelength used in the HPLC analysis was 210 nm.

For assay [2], the system named is disrupted Pichia cells (released B-glu1 enzyme). Nature of the assay: hydrolysis of steviol glycosides by disrupted Pichia cells (crude extract), HPLC analysis. The class given is biochemical, Pichia pastoris. The settings on record: crude protein 50 ug in 300 ul, 1 g/L substrate, pH 7.2, 30-37° C.; FIG. 8 samples at 24 hours. As to the method: Pichia cells were suspended in extraction buffer (50 mM potassium phosphate buffer, pH 7.2; 150 mM NaCl). After sonication, the supernatant (crude extract) was collected by centrifuge set at 12,000 g at 4° C. The resulting crude protein (50 ug) was tested in a 300 ul in vitro reaction system. The reaction system contains 50 mM potassium phosphate buffer, pH 7.2, 1 mg/ml steviol glycoside. The reaction was performed at 30-37° C. and 50 ul reaction was terminated by adding 200 μL 1-butanol at various time points. The samples were extracted three times with 200 μL 1-butanol. The pooled fraction was dried and dissolved in 100 μL 80% methanol for high-performance liquid chromatography (HPLC) analysis. HPLC analysis was then performed using a Dionex UPLC ultimate 3000 system (Sunnyvale, Calif.), including a quaternary pump, a temperature controlled column compartment, an auto sampler and a UV absorbance detector. A Synergi Hydro-RP column (Phenomenex) with guard column was used for the characterization of steviol glycosides in the pooled samples. Acetonitrile in water was used mobile phase in the HPLC analysis. The detection wavelength used in the HPLC analysis was 210 nm.

Consider `C=C1C[C@@]23CC[C@H]4[C@@](C)(CCC[C@@]4(C)C(=O)O[C@@H]4O[C@H](CO)[C@@H](O)[C@H](O[C@@H]5O[C@H](CO)[C@@H](O)[C@H](O)[C@H]5O)[C@H]4O)[C@@H]2CC[C@]1(O[C@@H]1O[C@H](CO)[C@@H](O)[C@H](O[C@@H]2O[C@H](CO)[C@@H](O)[C@H](O)[C@H]2O)[C@H]1O[C@@H]1O[C@H](CO)[C@@H](O)[C@H](O)[C@H]1O)C3` [Reb 1, rebaudioside I], for which the “extent of conversion by recombinant B-glu1 at 24 hrs” value in assay [1] is on record as “completely”. In addition, the “Products of hydrolysis of steviol glycoside substrate by B-glu1” value (“Products of hydrolysis … by B-glu1” below) in assay [1] is “Reb A, Reb B”; in assay [1] (listed as Rebaudioside I) it was “rebaudioside A and the produced A can be hydrolyzed to produce rebaudioside B”. Also, the “Products of hydrolysis by disrupted Pichia cells” value in assay [2] is listed as “rebaudioside B”.

Take `C=C1C[C@@]23CC[C@H]4[C@@](C)(CCC[C@@]4(C)C(=O)O[C@@H]4O[C@H](CO)[C@@H](O)[C@H](O)[C@H]4O)[C@@H]2CC[C@]1(O[C@@H]1O[C@H](CO)[C@@H](O)[C@H](O[C@@H]2O[C@H](CO)[C@@H](O)[C@H](O)[C@H]2O)[C@H]1O[C@@H]1O[C@H](CO)[C@@H](O)[C@H](O)[C@H]1O)C3` [Reb A, rebaudioside A]: the “Products of hydrolysis … by B-glu1” value in assay [1] is listed as “Reb B”; in assay [1] (listed as Rebaudioside A), “rebaudioside B”. Further, in assay [2], the “Products of hydrolysis by disrupted Pichia cells” value is recorded as “rebaudioside B”.

With `C=C1C[C@@]23CC[C@H]4[C@@](C)(CCC[C@@]4(C)C(=O)O[C@@H]4O[C@H](CO)[C@@H](O)[C@H](O)[C@H]4O[C@@H]4O[C@H](CO)[C@@H](O)[C@H](O)[C@H]4O)[C@@H]2CC[C@]1(O[C@@H]1O[C@H](CO)[C@@H](O)[C@H](O[C@@H]2O[C@H](CO)[C@@H](O)[C@H](O)[C@H]2O)[C@H]1O[C@@H]1O[C@H](CO)[C@@H](O)[C@H](O)[C@H]1O)C3` [Reb D, rebaudioside D], the “Products of hydrolysis … by B-glu1” value is “Reb B” in assay [1]; “rebaudioside B (FIG. 6B) and Reb A” in assay [1] (listed as Rebaudioside D). Moreover, in assay [2], the “Products of hydrolysis by disrupted Pichia cells” value was “rebaudioside B”.

For the molecule `C=C1C[C@@]23CC[C@H]4[C@@](C)(CCC[C@@]4(C)C(=O)O[C@@H]4O[C@H](CO)[C@@H](O)[C@H](O)[C@H]4O[C@@H]4O[C@H](CO)[C@@H](O)[C@H](O)[C@H]4O)[C@@H]2CC[C@]1(O[C@@H]1O[C@H](CO)[C@@H](O)[C@H](O)[C@H]1O[C@@H]1O[C@H](CO)[C@@H](O)[C@H](O)[C@H]1O)C3` [Reb E, rebaudioside E], the “Products of hydrolysis … by B-glu1” value in assay [1] was “stevioside, Steviolbioside (SB)”; in assay [1] (listed as Rebaudioside E) it was “stevioside and steviolbioside”. Besides, the “Products of hydrolysis by disrupted Pichia cells” value in assay [2] is “steviolbioside”.

For `C=C1C[C@@]23CC[C@H]4[C@@](C)(CCC[C@@]4(C)C(=O)O[C@@H]4O[C@H](CO)[C@@H](O)[C@H](O)[C@H]4O)[C@@H]2CC[C@]1(O[C@@H]1O[C@H](CO)[C@@H](O)[C@H](O[C@@H]2O[C@H](CO)[C@@H](O)[C@H](O)[C@H]2O)[C@H]1O)C3` [Reb G, rebaudioside G], the “Products of hydrolysis … by B-glu1” value in assay [1] is “Steviol-13-O-glucoside (S-13-G), steviol”; in assay [1] (listed as Rebaudioside G), “steviol-13-glucoside”. Moreover, the “Products of hydrolysis by disrupted Pichia cells” value in assay [2] is “steviol-13-glucoside and continually to produce steviol”.

Turning to `C=C1C[C@@]23CC[C@H]4[C@@](C)(CCC[C@@]4(C)C(=O)O[C@@H]4O[C@H](CO)[C@@H](O)[C@H](O[C@@H]5O[C@H](CO)[C@@H](O)[C@H](O)[C@H]5O)[C@H]4O[C@@H]4O[C@H](CO)[C@@H](O)[C@H](O)[C@H]4O)[C@@H]2CC[C@]1(O[C@@H]1O[C@H](CO)[C@@H](O)[C@H](O[C@@H]2O[C@H](CO)[C@@H](O)[C@H](O)[C@H]2O)[C@H]1O[C@@H]1O[C@H](CO)[C@@H](O)[C@H](O)[C@H]1O)C3` [Reb M, rebaudioside M], the “Products of hydrolysis … by B-glu1” value in assay [1] was “No cleavage”.

As to `C=C1C[C@@]23CC[C@H]4[C@@](C)(CCC[C@@]4(C)C(=O)O[C@@H]4O[C@H](CO)[C@@H](O)[C@H](O)[C@H]4O)[C@@H]2CC[C@]1(O[C@@H]1O[C@H](CO)[C@@H](O)[C@H](O)[C@H]1O)C3` [Rub, rubusoside], the “Products of hydrolysis … by B-glu1” value in assay [1] is “Steviol-13-O-glucoside (S-13-G), steviol”; in assay [1] (listed as Rubusoside), “steviol-13-glucoside”. The “Products of hydrolysis by disrupted Pichia cells” value in assay [2] was “steviol-13-glucoside and continually to produce steviol”.

For `C=C1C[C@@]23CC[C@H]4[C@@](C)(CCC[C@@]4(C)C(=O)O)[C@@H]2CC[C@]1(O[C@@H]1O[C@H](CO)[C@@H](O)[C@H](O)[C@H]1O)C3` [steviol-13-glucoside], in assay [1], the “extent of conversion by recombinant B-glu1 at 24 hrs” value was “completely” and the “Products of hydrolysis … by B-glu1” value is given as “steviol”.

For rebaudioside B [Reb B], the “Products of hydrolysis … by B-glu1” value in assay [1] is on record as “No cleavage”.

B1: B-glu1: Pichia pastoris (GS115) beta-glucosidase, SEQ ID NO: 1, His-tagged, expressed in E. coli (protein, listed as Pichia pastoris)
chain: MTQLDVESLIQELTLNEKVQLLSGSDFWHTTPVRRLGIPKMRLSDGPNGVRGTKFFNGVPTACFPCGTGLGATFDKELLKEAGSLMADEAKAKAASVVLGPTANIARGPNGGRGFESFGEDPVVNGLSSAAMINGLQGKYIAATMKHYVCNDLEMDRNCIDAQVSHRALREVYLLPFQIAVRDANPRAIMTAYNKANGEHVSQSKFLLDEVLRKEWGWDGLLMSDWFGVYDAKSSITNGLDLEMPGPPQCRVHSATDHAINSGEIHINDVDERVRSLLSLINYCHQSGVTEEDPETSDNNTPETIEKLRKISRESIVLLKDDDRNRSILPLKKSDKIAVIGNNAKQAAYCGGGSASVLSYHTTTPFDSIKSRLEDSNTPAYTIGADAYKNLPPLGPQMTDSDGKPGFDAKFFVGSPTSKDRKLIDHFQLTNSQVFLVDYYNEQIPENKEFYVDVEGQFIPEEDGTYNFGLTVFGTGRLFVDDKLVSDSSQNQTPGDSFFGLAAQEVIGSIHLVKGKAYKIKVLYGSSVTRTYEIAASVAFEGGAFTFGAAKQRNEDEEIARAVEIAKANDKVVLCIGLNQDFESEGFDRPDIKIPGATNKMVSAVLKANPNTVIVNQTGTPVEMPWASDAPVILQAWFGGSEAGTAIADVLFGDYNPSGKLTVTFPLRFEDNPAYLNFQSNKQACWYGEDVYVGYRYYETIDRPVLFPFGHGLSFTEFDFTDMFVRLEEENLEVEVVVRNTGKYDGAEVVQLYVAPVSPSLKRPIKELKEYAKIFLASGEAKTVHLSVPIKYATSFFDEYQKKWCSEKGEYTILLGSSSADIKVSQSITLEKTTFWKGL
modifications: His tag
In the case of B1, the “activity to cleave related steviol glycosides” value in assay [1] (activity screening of candidate Pichia pastoris beta-glucosidases) was “strong activity”.
